The values below come from PMC5671392, “Optimization of an in vitro assay methodology for competitive binding of thyroidogenic xenobiotics with thyroxine on human transthyretin and albumin” (MethodsX, 2017).

For experiment [1], the system named is human TTR isolated from human plasma. The arrangement: method as in PMID 19033396. The following applies: in vitro; cited from earlier work.
In another experiment the target is human albumin (ALB) (Homo sapiens, UniProt P02768). Briefly: Competitive T4 radio-ligand (125I-T4) binding assay with human albumin. The following applies: 600 nM ALB.
In experiment [2] the target is human transthyretin (TTR) (Homo sapiens, UniProt P02766). Nature of the experiment: Competitive T4 radio-ligand (125I-T4) binding assay with human transthyretin. The settings on record: 30 nM TTR.
Source text: (§1) The entire assay takes two days to complete for each batch of samples to be processed. The Day 1 procedure is described as follows. […] First, thaw the working solutions of these components to room temperature if they have been placed in frozen storage. For the protein working solutions, prepare the day they are to be used based on the number of assay aliquots required (one vial is sufficient for approximately 45 assay samples). […] Label a series of polypropylene test tubes corresponding to the samples being prepared. This should include triplicate samples for each ligand competitor concentration.
(§2) The following steps describe the order of pipetting components for assay incubation mixtures. • 1. […] Continue for each increasing concentration of the ligand. Control samples receive 5 μL of DMSO in place of a competitor ligand. • 2. […] Centrifuge the samples at 300 × g for 30 s to force the solution to the bottom of the tube. • 4. Measure the initial radioactivity on the gamma counter. […]
(§3) Label a series of clean test tubes corresponding to the samples prepared on Day 1 and repeat these labels on Bio-Spin® columns. Work on one replicate set at a time, leaving the remaining columns and incubation mixtures in the fridge until ready for processing. […] Measure the radioactivity of the eluate fraction, as well as the residual radioactivity in the incubation tubes containing the discarded pipette tips. […]

Sequence of human albumin (ALB) (P02768 25-609): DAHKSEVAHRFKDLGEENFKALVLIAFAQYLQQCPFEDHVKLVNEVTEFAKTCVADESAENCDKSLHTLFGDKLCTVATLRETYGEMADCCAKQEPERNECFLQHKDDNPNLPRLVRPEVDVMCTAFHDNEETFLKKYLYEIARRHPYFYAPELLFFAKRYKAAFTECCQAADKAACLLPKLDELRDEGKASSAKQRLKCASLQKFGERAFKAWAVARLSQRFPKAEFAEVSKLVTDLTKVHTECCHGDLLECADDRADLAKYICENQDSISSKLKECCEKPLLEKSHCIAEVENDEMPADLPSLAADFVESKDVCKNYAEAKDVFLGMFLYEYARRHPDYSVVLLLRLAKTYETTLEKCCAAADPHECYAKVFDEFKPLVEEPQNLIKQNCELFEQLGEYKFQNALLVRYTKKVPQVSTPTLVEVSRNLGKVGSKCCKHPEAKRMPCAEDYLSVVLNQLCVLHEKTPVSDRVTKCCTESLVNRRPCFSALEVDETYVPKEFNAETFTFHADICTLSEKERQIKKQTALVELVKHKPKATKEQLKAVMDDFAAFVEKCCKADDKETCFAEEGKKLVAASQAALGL
Source text for human albumin (ALB): as §1, §2, §3

For orientation: IC50 means the concentration needed to halve the response being measured. A word on the Ki: it is the dissociation constant of the complex between target and ligand, obtained from inhibition or displacement. As for `Oc1cc(Br)c(Oc2ccc(Br)cc2Br)cc1Br` [4-OH-BDE-49, 4′-hydroxy-2,2′,4,5′-tetrabromodiphenyl ether], the “Binding affinity for human TTR compared with T4” value in experiment [1] was “higher affinity than T4”. Besides, the IC50 was 1.15 nM on human albumin (ALB) (read-out: IC50, T4-ALB competitive binding, 55 nM T4 + 125I-T4, overnight at 4 °C, Tris-EDTA pH 8.0, 6 replicates) and 12.2 nM in experiment [2] (read-out: IC50, T4-TTR competitive binding, 55 nM T4 + 125I-T4, overnight at 4 °C, Tris-EDTA pH 8.0, 6 replicates). The Ki at human albumin (ALB) (read-out: Ki, T4-ALB competitive binding, calculated from IC50 after Cheng and Prusoff, unit inferred) was 1.08 nM; in experiment [2] (read-out: Ki, T4-TTR competitive binding, calculated from IC50 after Cheng and Prusoff, unit inferred), 12.2 nM.
